Assays:
[1] = test system: S. aureus Newman; test: fitness (endpoint OD595 vs no drug) (fraction); higher = more growth; conditions: one replicate, main component drawn
In short: (§1)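 Bacterial growth was followed in 384-well plates seeded at OD595 0.01, with 30 µl per well, or 55 µl for S. pneumoniae, in TSB, LB Lennox or CY at 37 °C. OD595 was read every 30 min for 14 h, and each reading had the first reading subtracted as background. Fitness is the background-corrected optical density at entry into stationary phase divided by the robust mean of the no-drug control wells. This ratio is capped at 1.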

[2] = test system: S. pneumoniae D39V; test: as above; conditions: main component drawn
In short: as §1

[3] = test system: B. subtilis 168; test: Bliss interaction score (quartile over a dose matrix) (fitness difference); higher = more antagonism (negative = synergy); conditions: main component drawn
In short: (§2)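 Combination data were used to infer fitness under each single drug. Fitness is the OD595 at entry into stationary phase divided by the robust mean of the plate's no-drug wells, with a cap of 1. The Bliss score is the observed minus the expected product fitness, summarised by quartiles over technical, biological and donor/recipient replicates.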

[4] = test system: S. aureus DSM 20231; test: as above; conditions: main component drawn
In short: as §2

[5] = test system: S. aureus Newman; test: as above; conditions: main component drawn
In short: as §2

[6] = test system: S. pneumoniae D39V; test: as above; conditions: main component drawn
In short: as §2

[7] = test system: B. subtilis 168; test: fitness (endpoint OD595 vs no drug) (fraction); higher = more growth; conditions: main component drawn
In short: as §1
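For Bliss interaction score (quartile over a dose matrix) in this document: first quartile when negative (synergy) and third quartile when positive (antagonism).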

CNC(C)C1CCC(N)C(OC2C(N)CC(N)C(OC3OCC(C)(O)C(NC)C3O)C2O)O1 (stereo not drawn) [Gentamicin] + C/C(=C\C(=O)OCCCCCCCCC(=O)O)C[C@@H]1OC[C@H](C[C@@H]2O[C@H]2[C@@H](C)[C@H](C)O)[C@@H](O)[C@H]1O [Pseudomonic acid]
fitness
Conditions | first compound 1 µg/mL | first compound 2 µg/mL | first compound 4 µg/mL | first compound 8 µg/mL
[1], partner 0.0313 µg/mL | 0.0474 | 0.0502 | 0.0545 | –
[1], partner 0.0625 µg/mL | 0.0311 | 0.0417 | 0.0388 | –
[1], partner 0.125 µg/mL | 0.0416 | 0.0314 | 0.0572 | –
[2], partner 0.03 µg/mL | – | 0.922 | 0.923 | 0.881
[2], partner 0.06 µg/mL | – | 0.727 | 0.769 | 0.673
[2], partner 0.12 µg/mL | – | 0.396 | 0.393 | 0.323

Conditions | Bliss interaction score
[3] | 0.0456
[4] | 0.0111
[5] | 0.0245
[6] | -0.134

CNC(C)C1CCC(N)C(OC2C(N)CC(N)C(OC3OCC(C)(O)C(NC)C3O)C2O)O1 (stereo not drawn) [Gentamicin] + CC(=O)NC[C@H]1CN(c2ccc(N3CCOCC3)c(F)c2)C(=O)O1 [Linezolid]
[7], partner 0.0625 µg/mL, one replicate
Conditions | fitness
first compound 0.0625 µg/mL | 0.827
first compound 0.125 µg/mL | 0.0748
first compound 0.25 µg/mL | 0.0626

fitness, [2]
Conditions | partner 0.105 µg/mL | partner 0.2 µg/mL | partner 0.21 µg/mL | partner 0.4 µg/mL | partner 0.42 µg/mL | partner 0.8 µg/mL
first compound 2 µg/mL | 0.881 | 0.414 | 0.767 | 0.228 | 0.636 | 0.0665
first compound 4 µg/mL | 0.908 | 0.408 | 0.759 | 0.215 | 0.6 | 0.0715
first compound 8 µg/mL | 0.843 | 0.37 | 0.758 | 0.212 | 0.579 | 0.0595

Conditions | Bliss interaction score
[3] | 0.144
[4] | 0.0779
[5] | 0.0901
[6] | -0.136

CNC(C)C1CCC(N)C(OC2C(N)CC(N)C(OC3OCC(C)(O)C(NC)C3O)C2O)O1 (stereo not drawn) [Gentamicin] + CCC(C)C1C(=O)NC(=C)C(=O)NC(C(=O)NC(CSCC(C(=O)N1)NC(=O)/C(=C/C)/NC(=O)C(C(C)CC)N)C(=O)NC2C(SCC(NC(=O)CNC(=O)C3CCCN3C2=O)C(=O)NC(CCCCN)C(=O)NC4C(SCC(NC(=O)CNC(=O)C(NC(=O)C(NC(=O)C(NC(=O)CNC4=O)C)CC(C)C)CCSC)C(=O)NC(CC(=O)N)C(=O)NC(CCSC)C(=O)NC(CCCCN)C(=O)NC5C(SCC6C(=O)NC(C(=O)NC(CSC(C(C(=O)N6)NC(=O)C(NC5=O)C)C)C(=O)NC(CO)C(=O)NC(C(C)CC)C(=O)NC(CC7=CN=CN7)C(=O)NC(C(C)C)C(=O)NC(=C)C(=O)NC(CCCCN)C(=O)O)CC8=CN=CN8)C)C)C)CC(C)C [Nisin]
Conditions | fitness
[2], first compound 2 µg/mL, partner 0.4275 µg/mL | 0.957
[2], first compound 2 µg/mL, partner 0.855 µg/mL | ≥ 1
[2], first compound 2 µg/mL, partner 1.6 µg/mL | 0.0179
[2], first compound 2 µg/mL, partner 1.71 µg/mL | 0.0948
[2], first compound 2 µg/mL, partner 3.2 µg/mL | 0.0145
[2], first compound 2 µg/mL, partner 6.4 µg/mL | 0.0183
[2], first compound 4 µg/mL, partner 0.4275 µg/mL | 0.999
[2], first compound 4 µg/mL, partner 0.855 µg/mL | ≥ 1
[2], first compound 4 µg/mL, partner 1.6 µg/mL | 0.0111
[2], first compound 4 µg/mL, partner 1.71 µg/mL | 0.07
[2], first compound 4 µg/mL, partner 3.2 µg/mL | 0.0177
[2], first compound 4 µg/mL, partner 6.4 µg/mL | 0.0081
[2], first compound 8 µg/mL, partner 0.4275 µg/mL | 0.99
[2], first compound 8 µg/mL, partner 0.855 µg/mL | 0.986
[2], first compound 8 µg/mL, partner 1.6 µg/mL | 0.0051
[2], first compound 8 µg/mL, partner 1.71 µg/mL | 0.0917
[2], first compound 8 µg/mL, partner 3.2 µg/mL | 0.0325
[2], first compound 8 µg/mL, partner 6.4 µg/mL | 0.0106
[7], first compound 0.0625 µg/mL, partner 0.5 µg/mL | 0.865
[7], first compound 0.0625 µg/mL, partner 1 µg/mL | 0.793
[7], first compound 0.125 µg/mL, partner 0.5 µg/mL | 0.768
[7], first compound 0.125 µg/mL, partner 2 µg/mL | 0.213
[7], first compound 0.25 µg/mL, partner 0.5 µg/mL | 0.27
[7], first compound 0.25 µg/mL, partner 1 µg/mL | 0.102
[7], first compound 0.25 µg/mL, partner 2 µg/mL | 0.057

fitness, [7], one replicate
Conditions | partner 1.25 µg/mL | partner 1.6 µg/mL | partner 2.5 µg/mL | partner 3.2 µg/mL | partner 4 µg/mL | partner 5 µg/mL | partner 6.4 µg/mL | partner 8 µg/mL | partner 16 µg/mL
first compound 0.0625 µg/mL | 0.861 | 0.703 | 0.037 | 0.0387 | 0.0303 | 0.0263 | 0.0574 | 0.0215 | 0.0053
first compound 0.125 µg/mL | 0.378 | 0.504 | 0.0311 | 0.0535 | 0.0234 | 0.0338 | 0.0847 | 0.0224 | 0.0101
first compound 0.25 µg/mL | 0.078 | 0.0505 | 0.0563 | 0.0642 | 0.0357 | 0.0313 | 0.0596 | 0.0124 | 0.007

Conditions | Bliss interaction score
[3] | -0.0796
[4] | 0.227
[5] | 0.0431
[6] | -0.0396

Reference: the supplement of paper PMC10627819
